Here are results for 77 sequences from the supplement of paper PMC11208160.

The data set in a line: recombinant barcode read abundance after kanamycin selection (control-corrected) (log10(CPM+1)); higher = more efficient recombination; sequences stand for … in AGTGCAGAGAAAATCGGCCAGTTTTCTCTGCCTGCAGTCCGCATGCCGT…AGATTTATGCAGCGGACTGCCTTTCTCCCAAAGTGATAAACCGGACAGTATCATGGACCGGTTTTCCCGGTAATCCGTATTTGCAAGGTTGGTTTCACT; site = the 11-nt target. In short, it runs like this:
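IS621 bridge RNA target-binding loops were paired with targets in a pooled library tested in E. coli. After co-electroporation with a donor plasmid, cells were plated in two replicates on chloramphenicol/ampicillin LB agar (control) and on chloramphenicol/ampicillin/kanamycin carrying 0.1 mM IPTG. Barcodes at recombinant junctions were counted as counts per million, averaged and control-corrected to give recombination efficiency. Values are log10(CPM+1).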
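Also: IS621 recombinase and bridge RNA in Escherichia coli cells.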

Regarding “CGCTTGTCTTGGGTTCTAACCTGTTGCTT (site CGCTTGTCTAA)”, the “recombinant barcode read abundance (log10)” value stood at 0.0711.

Turning to “CGGAACTCTTGGGTTCTAACCTGTTGCCT (site AGGAACTCTAG)”, the “recombinant barcode read abundance (log10)” value was determined as 0.274.

As for “CGGAACTCTTGGGTTCTAACCTGTTGCCT (site CGGAACTCTAG)”, the “recombinant barcode read abundance (log10)” value came out at 1.85.

On to “CGGAATCCTTGGGTTCTAACCTGTTGCCT (site CGGAATCCTAA)”, for which the “recombinant barcode read abundance (log10)” value came to 0.198.

On to “CGGAATCCTTGGGTTCTAACCTGTTGCCT (site CGGAATCCTAC)”, for which the “recombinant barcode read abundance (log10)” value stood at 0.00785.

On to “CGGAATCCTTGGGTTCTAACCTGTTGCCT (site CGGAATCCTAG)”, for which the “recombinant barcode read abundance (log10)” value was 0.864.

Consider “CGGAATCCTTGGGTTCTAACCTGTTGCCT (site CGGAATCCTAT)”, for which the “recombinant barcode read abundance (log10)” value is 0.0895.

On to “CGGAATTCTTGGGTTCTAACCTGTTGCCT (site CGGAATTCTAG)”, for which the “recombinant barcode read abundance (log10)” value was 1.17.

“CGGAATTCTTGGGTTCTAACCTGTTGCCT (site CGTTATTCTAG)”: the “recombinant barcode read abundance (log10)” value turned out to be 0.743.

“CGGACGGCTTGGGTTCTAACCTGTTGCCT (site CGGACGACTAG)”: the “recombinant barcode read abundance (log10)” value was 0.376.

For “CGGACGGCTTGGGTTCTAACCTGTTGCCT (site CGGACGCCTAG)”, the “recombinant barcode read abundance (log10)” value was 0.285.

For “CGGACGGCTTGGGTTCTAACCTGTTGCCT (site CGGACGGCTAG)”, the “recombinant barcode read abundance (log10)” value was found to be 0.215.

Take “CGGACGGCTTGGGTTCTAACCTGTTGCCT (site CGGACGTCTAG)”: the “recombinant barcode read abundance (log10)” value stood at 0.271.

In the case of “CGGACGTCTTGGGTTCTAACCTGTTGCCT (site CGGACGACTAG)”, the “recombinant barcode read abundance (log10)” value came to 0.12.

With “CGGACGTCTTGGGTTCTAACCTGTTGCCT (site CGGACGCCTAG)”, the “recombinant barcode read abundance (log10)” value was 0.0491.

Regarding “CGGACGTCTTGGGTTCTAACCTGTTGCCT (site CGGACGGCTAG)”, the “recombinant barcode read abundance (log10)” value was found to be 0.101.

In the case of “CGGACGTCTTGGGTTCTAACCTGTTGCCT (site CGGACGTCTAG)”, the “recombinant barcode read abundance (log10)” value was 1.45.

On to “CGGAGCCCTTGGGTTCTAACCTGTTGCAG (site CGGAGCCCTCT)”, for which the “recombinant barcode read abundance (log10)” value is 2.06.

As to “CGGAGCCCTTGGGTTCTAACCTGTTGCAG (site CTGAGCCCTAT)”, the “recombinant barcode read abundance (log10)” value amounted to 0.143.

With “CGGCACACTTGGGTTCTAACCTGTTGCCT (site CGACACACTAG)”, the “recombinant barcode read abundance (log10)” value turned out to be 0.239.

For the sequence “CGGCACACTTGGGTTCTAACCTGTTGCCT (site CGCCACACTAG)”, the “recombinant barcode read abundance (log10)” value was determined as 0.0516.

Turning to “CGGCACACTTGGGTTCTAACCTGTTGCCT (site CGGCACACTAG)”, the “recombinant barcode read abundance (log10)” value came out at 0.761.

In the case of “CGGCACACTTGGGTTCTAACCTGTTGCCT (site CGTCACACTAG)”, the “recombinant barcode read abundance (log10)” value came out at 0.00935.

With “CGGCACACTTGGGTTCTAACCTGTTGCTT (site CGGCACACTAA)”, the “recombinant barcode read abundance (log10)” value amounted to 0.778.

“CGGCACACTTGGGTTCTAACCTGTTGCTT (site CGGCTCACTTA)”: the “recombinant barcode read abundance (log10)” value stood at 0.129.

“CGGCGTGCTTGGGTTCTAACCTGTTGCCT (site CAGCGTGCTAG)”: the “recombinant barcode read abundance (log10)” value is 0.555.

Consider “CGGCGTGCTTGGGTTCTAACCTGTTGCCT (site CCGCGTGCTAG)”, for which the “recombinant barcode read abundance (log10)” value is 0.34.

In the case of “CGGCGTGCTTGGGTTCTAACCTGTTGCCT (site CGGCGTGCTAG)”, the “recombinant barcode read abundance (log10)” value came to 1.99.

In the case of “CGGCGTGCTTGGGTTCTAACCTGTTGCCT (site CTGCGTGCTAG)”, the “recombinant barcode read abundance (log10)” value came to 0.161.

In the case of “CGGCTACCTTGGGTTCTAACCTGTTGCGG (site CGGCTACCTCC)”, the “recombinant barcode read abundance (log10)” value was 1.29.

Consider “CGGCTACCTTGGGTTCTAACCTGTTGCGG (site GACGGCACTAG)”, for which the “recombinant barcode read abundance (log10)” value was 0.0111.

With “CGGCTGCCTTGGGTTCTAACCTGTTGCGG (site CGGCTGCCTCC)”, the “recombinant barcode read abundance (log10)” value was 2.57.

On to “CGGCTGCCTTGGGTTCTAACCTGTTGCGG (site GTATCCGCTTG)”, for which the “recombinant barcode read abundance (log10)” value was determined as 0.446.

For the sequence “CGGCTTCCTTGGGTTCTAACCTGTTGCGT (site CAACTTCCTAC)”, the “recombinant barcode read abundance (log10)” value is 0.117.

Consider “CGGCTTCCTTGGGTTCTAACCTGTTGCGT (site CGGCTTCCTAC)”, for which the “recombinant barcode read abundance (log10)” value was 1.24.

Consider “CGGGACACTTGGGTTCTAACCTGTTGCGG (site CGGAACACTCC)”, for which the “recombinant barcode read abundance (log10)” value stood at 2.07.

Turning to “CGGGACACTTGGGTTCTAACCTGTTGCGG (site CGGCACACTCC)”, the “recombinant barcode read abundance (log10)” value was 0.143.

As to “CGGGACACTTGGGTTCTAACCTGTTGCGG (site CGGGACACTCC)”, the “recombinant barcode read abundance (log10)” value was 2.82.

With “CGGGACACTTGGGTTCTAACCTGTTGCGG (site CGGTACACTCC)”, the “recombinant barcode read abundance (log10)” value is 0.867.

Turning to “CGGGCTACTTGGGTTCTAACCTGTTGCCA (site CGGGCTACTTG)”, the “recombinant barcode read abundance (log10)” value is 0.334.

In the case of “CGGGCTACTTGGGTTCTAACCTGTTGCCA (site TCCTAATCTAA)”, the “recombinant barcode read abundance (log10)” value was 0.00664.

As for “CGGGGAGCTTGGGTTCTAACCTGTTGCCG (site CGGGAAGCTAG)”, the “recombinant barcode read abundance (log10)” value worked out at 0.427.

Take “CGGGGAGCTTGGGTTCTAACCTGTTGCCG (site CGGGGAGCTCG)”: the “recombinant barcode read abundance (log10)” value was found to be 0.761.

For “CGGGGCACTTGGGTTCTAACCTGTTGCCT (site CGGGGCACTAG)”, the “recombinant barcode read abundance (log10)” value came out at 0.606.

For the sequence “CGGGGCACTTGGGTTCTAACCTGTTGCCT (site CTGGGCACTAG)”, the “recombinant barcode read abundance (log10)” value was determined as 0.18.

Regarding “CGGGGTTCTTGGGTTCTAACCTGTTGCCT (site CAGGGTTCTAG)”, the “recombinant barcode read abundance (log10)” value is 0.321.

On to “CGGGGTTCTTGGGTTCTAACCTGTTGCCT (site CCGGGTTCTAG)”, for which the “recombinant barcode read abundance (log10)” value came out at 0.167.

Turning to “CGGGGTTCTTGGGTTCTAACCTGTTGCCT (site CGGGGTTCTAG)”, the “recombinant barcode read abundance (log10)” value was found to be 2.43.

Take “CGGGGTTCTTGGGTTCTAACCTGTTGCCT (site CTGGGTTCTAG)”: the “recombinant barcode read abundance (log10)” value is 0.0823.

Regarding “CGGGTAACTTGGGTTCTAACCTGTTGCCT (site CGGGTAACTAG)”, the “recombinant barcode read abundance (log10)” value amounted to 0.0693.

In the case of “CGGGTAACTTGGGTTCTAACCTGTTGCCT (site CTGGAAACTAG)”, the “recombinant barcode read abundance (log10)” value is 0.0897.

Regarding “CGGTAATCTTGGGTTCTAACCTGTTGCTT (site ACGTAATCTAA)”, the “recombinant barcode read abundance (log10)” value worked out at 0.0734.

For “CGGTAATCTTGGGTTCTAACCTGTTGCTT (site CGGTAATCTAA)”, the “recombinant barcode read abundance (log10)” value was found to be 0.161.

On to “CGGTACACTTGGGTTCTAACCTGTTGCGG (site CGGAACACTCC)”, for which the “recombinant barcode read abundance (log10)” value came out at 0.862.

Turning to “CGGTACACTTGGGTTCTAACCTGTTGCGG (site CGGCACACTCC)”, the “recombinant barcode read abundance (log10)” value is 2.48.

In the case of “CGGTACACTTGGGTTCTAACCTGTTGCGG (site CGGGACACTCC)”, the “recombinant barcode read abundance (log10)” value was found to be 0.78.

Regarding “CGGTACACTTGGGTTCTAACCTGTTGCGG (site CGGTACACTCC)”, the “recombinant barcode read abundance (log10)” value is 3.14.

Take “CGGTAGTCTTGGGTTCTAACCTGTTGCTG (site CGGTAGTCTAA)”: the “recombinant barcode read abundance (log10)” value stood at 0.0345.

“CGGTAGTCTTGGGTTCTAACCTGTTGCTG (site CGGTAGTCTCA)”: the “recombinant barcode read abundance (log10)” value was 1.08.

As for “CGGTGAACTTGGGTTCTAACCTGTTGCCT (site CAGTGAACTAG)”, the “recombinant barcode read abundance (log10)” value was 0.109.

Turning to “CGGTGAACTTGGGTTCTAACCTGTTGCCT (site CCGTGAACTAG)”, the “recombinant barcode read abundance (log10)” value came to 0.148.

Consider “CGGTGAACTTGGGTTCTAACCTGTTGCCT (site CGGTGAACTAG)”, for which the “recombinant barcode read abundance (log10)” value worked out at 1.16.

“CGGTGAACTTGGGTTCTAACCTGTTGCCT (site CTGTGAACTAG)”: the “recombinant barcode read abundance (log10)” value was found to be 0.146.

“CGTAAGCCTTGGGTTCTAACCTGTTGCAT (site CGCAAGCCTAT)”: the “recombinant barcode read abundance (log10)” value amounted to 0.265.

In the case of “CGTAAGCCTTGGGTTCTAACCTGTTGCAT (site CGTAAGCCTAT)”, the “recombinant barcode read abundance (log10)” value was 0.57.

Regarding “CGTAGAGCTTGGGTTCTAACCTGTTGCCT (site AGTAGAACTAG)”, the “recombinant barcode read abundance (log10)” value was found to be 0.0247.

In the case of “CGTAGAGCTTGGGTTCTAACCTGTTGCCT (site CGTAGAGCTAG)”, the “recombinant barcode read abundance (log10)” value was 0.349.

“CGTAGCTCTTGGGTTCTAACCTGTTGCCT (site CGAAGCTCTAG)”: the “recombinant barcode read abundance (log10)” value came out at 0.133.

For “CGTAGCTCTTGGGTTCTAACCTGTTGCCT (site CGCAGCTCTAG)”, the “recombinant barcode read abundance (log10)” value stood at 0.128.

As to “CGTAGCTCTTGGGTTCTAACCTGTTGCCT (site CGGAGCTCTAG)”, the “recombinant barcode read abundance (log10)” value worked out at 0.134.

In the case of “CGTAGCTCTTGGGTTCTAACCTGTTGCCT (site CGTAGCTCTAG)”, the “recombinant barcode read abundance (log10)” value was found to be 0.516.

For “CGTATCACTTGGGTTCTAACCTGTTGCCT (site CCGATCACTAG)”, the “recombinant barcode read abundance (log10)” value is 0.0447.

“CGTATCACTTGGGTTCTAACCTGTTGCCT (site CGTATCACTAG)”: the “recombinant barcode read abundance (log10)” value is 0.0527.

For the sequence “CGTATGGCTTGGGTTCTAACCTGTTGCCT (site CGTATGGCTAG)”, the “recombinant barcode read abundance (log10)” value worked out at 0.349.

Regarding “CGTATGGCTTGGGTTCTAACCTGTTGCCT (site CGTGGGGCTAG)”, the “recombinant barcode read abundance (log10)” value is 0.279.

With “CGTCACCCTTGGGTTCTAACCTGTTGCCT (site CGTCAACCTAG)”, the “recombinant barcode read abundance (log10)” value was 0.0616.

Regarding “CGTCACCCTTGGGTTCTAACCTGTTGCCT (site CGTCACCCTAG)”, the “recombinant barcode read abundance (log10)” value worked out at 0.173.
